Patent US12629378B2, “Treatment of infantile hemangioma” (Arkayli Biopharma Inc., priority 2019, dated 2026)
Converted amounts (≈) assume the structure as drawn.

Key:
[1] = cited from earlier work; for Half-Life: in vivo; for distribution half-life: delivered intravenously
[2] = Esmolol solubility in various excipients; format: physicochemical
Excerpt: Knowing the solubility of a drug in different excipients and chemical enhancers is important in optimizing the saturation solubility of the drug in topical and transdermal formulations. Here below is a table (Table 1) showing the solubility of esmolol in several excipients and chemical enhancers. The solubility of Esmolol was higher in hydrophilic excipients and lower in the more lipophilic excipients. Several of these compounds were used to prepare the formulations in Example 2, such as the co-enhancing system of oleyl alcohol and propylene glycol.

[3] = cited from earlier work
[4] = children, after an oral dose; cited from earlier work
[5] = tested on: beta adrenergic receptors; settings: times more potent; cited from earlier work
[6] = drop (0.05 mL) of timolol 0.5% solution to the eye of an adult; cited from earlier work
[7] = children with pediatric glaucoma, intraocular; cited from earlier work
[8] = cited from earlier work; remark: listed apart in the source
[9] = adults; cited from earlier work
[10] = tested on: beta adrenergic receptors; settings: fraction of the potency of Esmolol; cited from earlier work

## CC(C)(C)NCC(O)COc1cccc2c1CCC(=O)N2 (stereo not shown) [Corteolol]
[1]
  Half-Life: 6 to 8 h

## COC(=O)CCc1ccc(OCC(O)CNC(C)C)cc1 (stereo not shown) [Esmolol, methyl 3-[4-[2-hydroxy-3-(propan-2-ylamino)propoxy]phenyl]propanoate]
[2]; Castor Oil (CO)
  Sat. Conc.: 23.4 mg/mL
[2]; Cotton seed oil (CSO)
  Sat. Conc.: 101.9 mg/mL
[2]; DMSO
  Sat. Conc.: 592.1 mg/mL
[2]; Dipropylene Glycol
  Sat. Conc.: 257.6 mg/mL
[2]; Ethanol
  Sat. Conc.: 310.4 mg/mL
[2]; Glyceryl monooleate (GMO)
  Sat. Conc.: 157.3 mg/mL
[2]; Isopropyl myristate (IPM)
  Sat. Conc.: 196.2 mg/mL
[2]; Lauroglycol FCC (LG)
  Sat. Conc.: 122.2 mg/mL
[2]; Oleic acid (OA)
  Sat. Conc.: 56.9 mg/mL
[2]; Oleyl Alcohol
  Sat. Conc.: 112.2 mg/mL
[2]; Olive Oil (OO)
  Sat. Conc.: 58.1 mg/mL
[2]; PEG-400
  Sat. Conc.: 248.6 mg/mL
[2]; Propylene Glycol
  Sat. Conc.: 450.7 mg/mL
[2]; Sesame oil (SO)
  Sat. Conc.: 56.6 mg/mL
[2]; Transcutol P
  Sat. Conc.: 344.5 mg/mL
[2]; water, read-out: Sat. Conc.
  solubility thermodynamic: 704 mg/mL (≈ 2380 mM)
[1]
  distribution half-life: about 2 minutes
  Half-Life: 0.15 h

## CC1(C)OC[C@@H](COC(=O)CCc2ccc(OC[C@@H](O)CNCCNC(=O)N3CCOCC3)cc2)O1 [Landiolol, [(4S)-2,2-dimethyl-1,3-dioxolan-4-yl]methyl 3-[4-[(2S)-2-hydroxy-3-[2-(morpholine-4-carbonylamino)ethylamino]propoxy]phenyl]propanoate]
[3]
  LogP: 0.44
[1]
  distribution half-life: about 2 minutes
  Half-Life: 0.05 to 0.1 h

## COCCc1ccc(OCC(O)CNC(C)C)cc1 (stereo not shown) [Metoprolol]
[1]
  Half-Life: 3 to 7 h

## CC(C)(C)NCC(O)COc1cccc2c1CC(O)C(O)C2 (stereo not shown) [Nadolol]
[3]
  LogP: 1
[1]
  Half-Life: 14 to 25 h

## C=CCOc1ccccc1OCC(O)CNC(C)C (stereo not shown) [Oxprenolol]
[3]
  LogP: 2.1
[1]
  Half-Life: 1 to 2 h

## CC(C)(C)NC[C@H](O)COc1ccccc1C1CCCC1 [Penbutolol]
[3]
  LogP: 4.15
[1]
  Half-Life: 20 h

## CC(C)NCC(O)COc1cccc2[nH]ccc12 (stereo not shown) [Pindolol]
[3]
  LogP: 1.75
[1]
  Half-Life: 3 to 4 h

## CC(C)NCC(O)COc1cccc2ccccc12 (stereo not shown) [Propranolol]
[1]
  Half-Life: 4 to 5 h
[4]
  time of peak effect on blood pressure and heart rate: around 2 hours

## CC(C)(C)NC[C@H](O)COc1nsnc1N1CCOCC1 [Timolol]
[3]
  LogP: 1.4
[1]
  Half-Life: 2.5 to 5 h
[5]
  potency compared with propranolol: 4-10 times
[6]
  fraction of each drop systemically absorbed through the ocular mucosa: approximately 80%
[7]
  systemic adverse effects (bradycardia, hypoglycemia, bronchial hyperreactivity), share of children: 3-4%
[8]; 86/92 samples, applied to skin over IH
  plasma samples in which timolol was detected: 93%
[8]; applied to skin over IH
  plasma level normalized for dose, mean: 24.1 ± 62.7 ng/mL/mg
  plasma level normalized for dose, median: 3 ng/mL/mg
  plasma level normalized for dose, range: 0.06 to 424 ng/mL/mg
  plasma level, median: 0.98 ng/mL
  plasma level, range: 0.03 to 106 ng/mL
  samples with plasma levels >0.2 ng/mL: 80%
[8]; of 86 samples
  samples between 0.020-0.2 ng/mL: 12/86
[8]; similar to intravenous administration
  subjects with plasma levels ≥10 ng/mL: Ten
[9]
  plasma concentration demonstrated to have measurable systemic beta-blocking activity: 0.2 ng/mL

## CC(C)NCC(O)COc1ccc(CCC(=O)O)cc1 (stereo not shown) [inactive metabolite]
[10]
  potency relative to Esmolol: 1/1500
